Assay results published in PubChem BioAssay (NCI).
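Briefly, cells in 96-well plates were exposed to five compound concentrations for 48 h, and endpoints were estimated by linear interpolation. Here, GI50 denotes the concentration required for 50% inhibition of growth. Definition used: TGI = concentration required for complete inhibition of growth.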

Key:
Experiment in all cases: DTP human tumour cell line panel, 48 h; in the data active means GI50 below about 0.43 µM; inactive means the rest
SF-295 CNS = system: SF-295 CNS
HOP-62 NSCLC = system: HOP-62 NSCLC
A498 renal = system: A498 renal
SK-MEL-28 melanoma = system: SK-MEL-28 melanoma
KM12 colon = system: KM12 colon
DU-145 prostate = system: DU-145 prostate
HCT-116 colon = system: HCT-116 colon
OVCAR-5 ovarian = system: OVCAR-5 ovarian
NCI-H23 lung = system: NCI-H23 lung
HOP-92 NSCLC = system: HOP-92 NSCLC
MOLT-4 leukemia = system: MOLT-4 leukemia
HCC-2998 colon = system: HCC-2998 colon
SF-539 CNS = system: SF-539 CNS
NCI-H226 lung = system: NCI-H226 lung
MDA-MB-468 breast = system: MDA-MB-468 breast
ACHN renal = system: ACHN renal
SF-268 CNS = system: SF-268 CNS
SK-MEL-5 melanoma = system: SK-MEL-5 melanoma
SK-OV-3 ovarian = system: SK-OV-3 ovarian
MCF7 breast = system: MCF7 breast
IGROV1 ovarian = system: IGROV1 ovarian
OVCAR-8 ovarian = system: OVCAR-8 ovarian
NCI-H522 lung = system: NCI-H522 lung
NCI-H460 lung = system: NCI-H460 lung
HS 578T breast = system: HS 578T breast
COLO 205 colon = system: COLO 205 colon
OVCAR-4 ovarian = system: OVCAR-4 ovarian
T-47D breast = system: T-47D breast
HCT-15 colon = system: HCT-15 colon
CCRF-CEM leukemia = system: CCRF-CEM leukemia
RXF 393 renal = system: RXF 393 renal
SW-620 colon = system: SW-620 colon
BT-549 breast = system: BT-549 breast
NCI/ADR-RES ovarian = system: NCI/ADR-RES ovarian
SN12C renal = system: SN12C renal
TK-10 renal = system: TK-10 renal
LOX IMVI melanoma = system: LOX IMVI melanoma
HT29 colon = system: HT29 colon
SR leukemia = system: SR leukemia
EKVX NSCLC = system: EKVX NSCLC
UACC-62 melanoma = system: UACC-62 melanoma
K-562 leukemia = system: K-562 leukemia
PC-3 prostate = system: PC-3 prostate
RPMI-8226 leukemia = system: RPMI-8226 leukemia
MDA-MB-435 = system: MDA-MB-435
CAKI-1 renal = system: CAKI-1 renal
U251 CNS = system: U251 CNS
MALME-3M melanoma = system: MALME-3M melanoma
SNB-19 CNS = system: SNB-19 CNS
A549 NSCLC = system: A549 NSCLC
786-0 renal = system: 786-0 renal
M14 melanoma = system: M14 melanoma
HL-60(TB) leukemia = system: HL-60(TB) leukemia
UACC-257 melanoma = system: UACC-257 melanoma
OVCAR-3 ovarian = system: OVCAR-3 ovarian

O=C(Cc1c(-c2ccccc2[N+](=O)[O-])n(-c2ncnc3c2c(-c2ccccc2)c(-c2ccccc2)n3Cc2ccccc2)[nH]c1=O)c1ccc(Cl)c(Cl)c1
55.4 µM: TGI (SK-OV-3 ovarian)
83.8 µM: TGI (OVCAR-5 ovarian)
72.8 µM: TGI (NCI-H522 lung)
66.1 µM: TGI (UACC-257 melanoma)
45.3 µM: TGI (SR leukemia)
61 µM: TGI (NCI-H226 lung)
83.9 µM: TGI (SF-539 CNS)
inactive: GI50 (SF-295 CNS) 8.34 µM | GI50 (HOP-62 NSCLC) 19.4 µM | GI50 (A498 renal) 16.6 µM | GI50 (SK-MEL-28 melanoma) 17.9 µM | GI50 (KM12 colon) 15.1 µM | GI50 (DU-145 prostate) 33.9 µM | GI50 (HCT-116 colon) 5.9 µM | GI50 (OVCAR-5 ovarian) 16.4 µM | GI50 (NCI-H23 lung) 13.3 µM | GI50 (HOP-92 NSCLC) 2.2 µM | GI50 (MOLT-4 leukemia) 13.4 µM | GI50 (HCC-2998 colon) 18.8 µM | GI50 (SF-539 CNS) 21 µM | GI50 (NCI-H226 lung) 14.4 µM | GI50 (MDA-MB-468 breast) 5.29 µM | GI50 (ACHN renal) 15.2 µM | GI50 (SF-268 CNS) 29.4 µM | GI50 (SK-MEL-5 melanoma) 8.89 µM | GI50 (SK-OV-3 ovarian) 14.2 µM | GI50 (MCF7 breast) 12.7 µM | GI50 (IGROV1 ovarian) 12.1 µM | GI50 (OVCAR-8 ovarian) 20.1 µM | GI50 (NCI-H522 lung) 7.37 µM | GI50 (NCI-H460 lung) 15.3 µM | GI50 (HS 578T breast) 10.4 µM | GI50 (COLO 205 colon) 11.5 µM | GI50 (OVCAR-4 ovarian) 13.2 µM | GI50 (T-47D breast) 2.76 µM | GI50 (HCT-15 colon) 15.8 µM | GI50 (CCRF-CEM leukemia) 18.6 µM | GI50 (RXF 393 renal) 22.5 µM | GI50 (SW-620 colon) 22.5 µM | GI50 (BT-549 breast) 12.1 µM | GI50 (NCI/ADR-RES ovarian) 19.7 µM | GI50 (SN12C renal) 15.1 µM | GI50 (TK-10 renal) 29.3 µM | GI50 (LOX IMVI melanoma) 11.6 µM | GI50 (HT29 colon) 10.1 µM | GI50 (SR leukemia) 12.4 µM | GI50 (EKVX NSCLC) 3.84 µM | GI50 (UACC-62 melanoma) 5.17 µM | GI50 (K-562 leukemia) 6.68 µM | GI50 (PC-3 prostate) 5.45 µM | GI50 (RPMI-8226 leukemia) 3.38 µM | GI50 (MDA-MB-435) 19.5 µM | GI50 (CAKI-1 renal) 15.7 µM | GI50 (U251 CNS) 13.7 µM | GI50 (MALME-3M melanoma) 12.4 µM | GI50 (SNB-19 CNS) 15.9 µM | GI50 (A549 NSCLC) 19.7 µM | GI50 (786-0 renal) 26.8 µM | GI50 (M14 melanoma) 17.7 µM | GI50 (HL-60(TB) leukemia) 5.24 µM | GI50 (UACC-257 melanoma) 9.08 µM | GI50 (OVCAR-3 ovarian) 12.8 µM
48.9 µM: TGI (MALME-3M melanoma)
26.9 µM: TGI (LOX IMVI melanoma)
47.7 µM: TGI (MCF7 breast)
93.9 µM: TGI (CAKI-1 renal)
74.6 µM: TGI (HS 578T breast)
61.6 µM: TGI (MOLT-4 leukemia)
58.1 µM: TGI (M14 melanoma)
57.5 µM: TGI (HCT-15 colon)
53.8 µM: TGI (BT-549 breast)
33.5 µM: TGI (MDA-MB-468 breast)
21.6 µM: TGI (SK-MEL-5 melanoma)
24.7 µM: TGI (COLO 205 colon)
58.7 µM: TGI (HL-60(TB) leukemia)
> 100 µM: TGI (SF-295 CNS) | TGI (SK-MEL-28 melanoma) | TGI (KM12 colon) | TGI (DU-145 prostate) | TGI (HCC-2998 colon) | TGI (ACHN renal) | TGI (SF-268 CNS) | TGI (IGROV1 ovarian) | TGI (OVCAR-8 ovarian) | TGI (NCI-H460 lung) | TGI (OVCAR-4 ovarian) | TGI (T-47D breast) | TGI (CCRF-CEM leukemia) | TGI (RXF 393 renal) | TGI (SW-620 colon) | TGI (NCI/ADR-RES ovarian) | TGI (SN12C renal) | TGI (TK-10 renal) | TGI (HT29 colon) | TGI (EKVX NSCLC) | TGI (K-562 leukemia) | TGI (PC-3 prostate) | TGI (U251 CNS) | TGI (SNB-19 CNS) | TGI (A549 NSCLC) | TGI (786-0 renal) | TGI (OVCAR-3 ovarian)
62.2 µM: TGI (MDA-MB-435)
20.9 µM: TGI (UACC-62 melanoma)
23.7 µM: TGI (HOP-92 NSCLC)
78 µM: TGI (A498 renal)
85.5 µM: TGI (HOP-62 NSCLC)
72.5 µM: TGI (NCI-H23 lung)
80.9 µM: TGI (HCT-116 colon)
29.7 µM: TGI (RPMI-8226 leukemia)
